In US9416141B2 (University of Washington through its Center for …, priority 2012, dated 2016):
Counter-ions that a name gives are not always drawn.

Tested on: hair cells
Experiment: Hair cell toxicity assay in zebrafish (neomycin-induced hair cell death, DASPEI staining of neuromasts)
Assay type: in vivo
Settings: Danio rerio; for Emax at 2.8 µM: maximum observed @ 2.8 μM test compound; for EC50: zebrafish larvae 5-7 dpf, 1 h pre-treatment, then 200 micromolar neomycin + test compound 30 min, read-out: HC50 (concentration that would produce 50% hair cell survival); for Emax at 25 µM: maximum observed @ 25 μM test compound; for Emax at 8.3 µM: maximum observed @ 8.3 μM test compound
Summary of the method: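 Zebrafish larvae 5-7 dpf pre-treated 1 h with compound (0.010-25 μM), then 30 min with 200 μM neomycin plus compound. DASPEI stained 10 neuromasts per fish, scored 0-2 (total 0-20), normalised to vehicle controls as % hair cell survival. HC50 linearly interpolated if survival reached ≥50%; HCmax is maximum survival.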

[1] = 200 micromolar neomycin, read-out: Max HC Protection (HCmax, % hair cell survival)

Row | SMILES | EC50 | Emax at 25 µM [1] | Emax at 8.3 µM [1] | other results
1 | CC(C)(C)OC(=O)CCCCCN1CCc2c(sc(NC(=O)Nc3ccc(Cl)cc3)c2C(N)=O)C1 [Example 18, tert-Butyl 6-{3-carbamoyl-2-[3-(4-chlorophenyl)ureido]-4,5-dihydrothieno[2,3-c]pyridin-6(7H)-yl}hexanoate] | < 1000 nM | – | – | Emax at 2.8 µM [1]: 64%
2 | CC[N+]1(C)CCc2c(sc(NC(=O)Nc3ccc4cc(F)ccc4c3)c2C(N)=O)C1 (stereo not shown) [Example 180, 3-Carbamoyl-6-ethyl-2-[3-(6-fluoronaphthalen-2-yl)ureido]-6-methyl-4,5,6,7-tetrahydrothieno[2,3-c]pyridin-6-ium iodide] | 1000 to 10000 nM | 102% | – | –
3 | Cc1c(CN2CCOCC2)sc(NC(=O)Nc2ccc(Cl)cc2)c1C(N)=O [Example 86, 2-[3-(4-Chlorophenyl)ureido]-4-methyl-5-(morpholinomethyl)thiophene-3-carboxamide hydrochloride] | 1000 to 10000 nM | – | 51% | –
4 | NC(=O)c1c(NC(=O)Nc2ccc(Cl)cc2)sc2c1CCN(CCCNC(=O)CCc1cccnc1)C2 [Example 211, 2-{[(4-chlorophenyl)carbamoyl]amino}-6-{3-[3-(pyridin-3-yl)propanamido]propyl}-4H,5H,6H,7H-thieno[2,3-c]pyridine-3-carboxamide] | < 1000 nM | 95% | – | –
5 | NC(=O)c1c(NC(=O)Nc2ccc(Cl)cc2)sc2c1CCC(N1CCC1)C2 (stereo not shown) [Example 43, 6-(Azetidin-1-yl)-2-[3-(4-chlorophenyl)ureido]-4,5,6,7-tetrahydrobenzo[b]thiophene-3-carboxamide hydrochloride] | 1000 to 10000 nM | 93% | – | –
6 | CC(C)(C)OC(=O)CCCCN1CCc2c(sc(NC(=O)Nc3ccc(Cl)cc3)c2C(N)=O)C1 [Example 19, tert-Butyl 5-{3-carbamoyl-2-[3-(4-chlorophenyl)ureido]-4,5-dihydrothieno[2,3-c]pyridin-6(7H)-yl}pentanoate] | < 1000 nM | – | 68% | –
7 | CCN1CCc2c(sc(NC(=O)Nc3ccccc3Cl)c2C(N)=O)C1 [Example 65, 2-[3-(2-Chlorophenyl)ureido]-6-ethyl-4,5,6,7-tetrahydrothieno[2,3-c]pyridine-3-carboxamide hydrochloride] | – | – | – | Emax at 2.8 µM [1]: 17%
8 | NC(=O)c1c(NC(=O)Nc2ccc(Cl)cc2)sc2c1CCN(CCCNC(=O)/C=C/c1ccccc1)C2 [Example 217, 2-{[(4-chlorophenyl)carbamoyl]amino}-6-{3-[(2E)-3-phenylprop-2-enamido]propyl}-4H,5H,6H,7H-thieno[2,3-c]pyridine-3-carboxamide] | < 1000 nM | – | – | Emax at 2.8 µM [1]: 93%
9 | CCN1CCc2c(sc(NC(N)=O)c2C(N)=O)C1 [Example 107, 6-ethyl-2-ureido-4,5,6,7-tetrahydrothieno[2,3-c]pyridine-3-carboxamide hydrochloride] | – | – | – | Emax at 2.8 µM [1]: 36%
10 | CN1C2CCC1c1sc(NC(=O)Nc3ccc(Cl)cc3)c(C(N)=O)c1C2 (racemic) [Example 125, (+/−)-2-[3-(4-chlorophenyl)ureido)-9-methyl-5,6,7,8-tetrahydro-4H-5,8-epiminocyclohepta[b]thiophene-3-carboxamide hydrochloride] | < 1000 nM | – | 99% | –
11 | CCN1CCc2c(sc(NC(=O)Nc3ccc(I)cc3)c2C(N)=O)C1 [Example 224, 6-ethyl-2-{[(4-iodophenyl)carbamoyl]amino}-4H,5H,6H,7H-thieno[2,3-c]pyridine-3-carboxamide] | 1000 to 10000 nM | – | – | Emax at 12.5 µM (maximum observed @ 12.5 μM test compound, 200 micromolar neomycin, read-out: Max HC Protection (HCmax, % hair cell survival)): 94%
12 | C[N+]1(CC23CC4CC(CC(C4)C2)C3)CCc2c(sc(NC(=O)Nc3ccc(Cl)cc3)c2C(N)=O)C1 (stereo not shown) [Example 197, 6-[(3r,5r,7r)-Adamantan-1-ylmethyl]-3-carbamoyl-2-[3-(4-chlorophenyl)ureido]-6-methyl-4,5,6,7-tetrahydrothieno[2,3-c]pyridin-6-ium chloride] | < 1000 nM | – | – | Emax at 2.8 µM [1]: 93%
13 | CC1(C)Cc2c(sc(NC(=O)Nc3ccc(Cl)cc3)c2C(N)=O)C(C)(C)N1 [Example 90, 2-[3-(4-Chlorophenyl)ureido]-5,5,7,7-tetramethyl-4,5,6,7-tetrahydrothieno[2,3-c]pyridine-3-carboxamide hydrochloride] | 1000 to 10000 nM | – | 99% | –
14 | CN(C)C(=O)CCC[N+]1(C)CCc2c(sc(NC(=O)Nc3ccc(Cl)cc3)c2C(N)=O)C1 (stereo not shown) [Example 165, 3-Carbamoyl-2-[3-(4-chlorophenyl)ureido]-6-[4-(dimethylamino)-4-oxobutyl]-6-methyl-4,5,6,7-tetrahydrothieno[2,3-c]pyridin-6-ium trifluoroacetate] | 1000 to 10000 nM | – | – | Emax at 2.8 µM [1]: 52%
15 | CN(C)C(=O)CCN1CCc2c(sc(NC(=O)Nc3ccc(Cl)cc3)c2C(N)=O)C1 [Example 53, 2-[3-(4-Chlorophenyl)ureido]-6-[3-(dimethylamino)-3-oxopropyl]-4,5,6,7-tetrahydrothieno[2,3-c]pyridine-3-carboxamide hydrochloride] | 1000 to 10000 nM | 103% | – | –
16 | CCN1CCc2c(sc(NC(=O)Nc3ccc4ncccc4c3)c2C(N)=O)C1 [Example 79, 6-Ethyl-2-[3-(quinolin-6-yl)ureido]-4,5,6,7-tetrahydrothieno[2,3-c]pyridine-3-carboxamide dihydrochloride] | – | – | – | Emax at 0.3 µM (maximum observed @ 0.3 μM test compound, 200 micromolar neomycin, read-out: Max HC Protection (HCmax, % hair cell survival)): 34%
17 | CC(C)(C)OC(=O)CCCN1CCc2c(sc(NC(=O)Nc3ccc(Cl)cc3)c2C(N)=O)C1 [Example 14, tert-Butyl 4-{3-carbamoyl-2-[3-(4-chlorophenyl)ureido]-4,5-dihydrothieno[2,3-c]pyridin-6(7H)-yl}butanoate] | < 1000 nM | – | 83% | –
18 | CC(C)(C)C[N+]1(C)CCc2c(sc(NC(=O)Nc3ccc(Cl)c4ccccc34)c2C(N)=O)C1 (stereo not shown) [Example 183, 3-Carbamoyl-2-[3-(4-chloronaphthalen-1-yl)ureido]-6-methyl-6-neopentyl-4,5,6,7-tetrahydrothieno[2,3-c]pyridin-6-ium chloride] | 1000 to 10000 nM | – | 70% | –
19 | NC(=O)c1c(NC(=O)Nc2ccc(Cl)cc2)sc2c1CCN(CCC(=O)O)C2 [Example 52, 3-{3-Carbamoyl-2-[3-(4-chlorophenyl)ureido]-4,5-dihydrothieno[2,3-c]pyridin-6(7H)-yl}propanoic acid trifluoroacetate] | – | 33% | – | –
20 | CC[N+]1(C)CCc2c(sc(NC(N)=O)c2C(N)=O)C1 (stereo not shown) [Example 184, 3-Carbamoyl-6-ethyl-6-methyl-2-ureido-4,5,6,7-tetrahydrothieno[2,3-c]pyridin-6-ium iodide] | – | 30% | – | –
21 | CON=C1CCc2c(sc(NC(=O)Nc3ccc(Cl)cc3)c2C(N)=O)C1 (single isomer, unassigned) [Example 121, 2-[3-(4-chlorophenyl)ureido]-6-(methoxyimino)-4,5,6,7-tetrahydrobenzo[b]thiophene-3-carboxamide] | – | – | – | Emax at 3 µM (maximum observed @ 03 μM test compound, 200 micromolar neomycin, read-out: Max HC Protection (HCmax, % hair cell survival)): 6%
22 | NC(=O)c1c(NC(=O)Nc2ccc(Cl)cc2)sc2c1CCN(CC1CCC1)C2 [Example 12, 2-[3-(4-Chlorophenyl)ureido]-6-(cyclobutylmethyl)-4,5,6,7-tetrahydrothieno[2,3-c]pyridine-3-carboxamide hydrochloride] | 1000 to 10000 nM | – | 73% | –
23 | CC[N+]1(C)CCc2c(ccc(NC(=O)Nc3ccc(Cl)cc3)c2C(N)=O)C1 (stereo not shown) [Example 172, 5-Carbamoyl-6-[3-(4-chlorophenyl)ureido]-2-ethyl-2-methyl-1,2,3,4-tetrahydroisoquinolin-2-ium iodide] | > 10000 nM | 66% | – | –
